Data as given in patent US20090176817A1, “Method of Treatment of Diarrhea-Predominant Irritable Bowel Syndrome in a Subject” (priority 2005, published 2009).

Tested on: diarrhea-predominant IBS subjects
Assay: Study S241.3.009: weekly diary questions on adequate relief
Format: in vivo, human
Settings: for Responder rate, adequate relief of abnormal bowel habits / Responder rate, adequate relief of IBS symptoms / Responder rate, adequate relief of abdominal pain/discomfort: monthly LOCF imputation; for Responder rate, adequate relief of abnormal bowel habits / Overall responder rate, adequate relief of IBS symptoms / Overall responder rate, adequate relief of abdominal pain/discomfort / Overall responder rate, adequate relief of abnormal bowel habits / Number of months a subject was a responder: One month (Abdominal pain/discomfort) / Number of months a subject was a responder: One month (Abnormal bowel habits) / Number of months a subject was a responder: One month (IBS symptoms) / Number of months a subject was a responder: Three months (Abdominal pain/discomfort) / Number of months a subject was a responder: Three months (Abnormal bowel habits) / Number of months a subject was a responder: Three months (IBS symptoms) / Number of months a subject was a responder: Two months (Abdominal pain/discomfort) / Number of months a subject was a responder: Two months (Abnormal bowel habits) / Number of months a subject was a responder: Two months (IBS symptoms) / Number of months a subject was a responder: Zero months (Abdominal pain/discomfort) / Number of months a subject was a responder: Zero months (Abnormal bowel habits) / Number of months a subject was a responder: Zero months (IBS symptoms) / Responder rate, adequate relief of IBS symptoms / Responder rate, adequate relief of abdominal pain/discomfort: ITT, 2 mg TID; for Overall responder rate, adequate relief of IBS symptoms / Overall responder rate, adequate relief of abdominal pain/discomfort / Overall responder rate, adequate relief of abnormal bowel habits: 26-week treatment period, observed case; for Number of months a subject was a responder: One month (Abdominal pain/discomfort) / Number of months a subject was a responder: One month (Abnormal bowel habits) / Number of months a subject was a responder: One month (IBS symptoms) / Number of months a subject was a responder: Three months (Abdominal pain/discomfort) / Number of months a subject was a responder: Three months (Abnormal bowel habits) / Number of months a subject was a responder: Three months (IBS symptoms) / Number of months a subject was a responder: Two months (Abdominal pain/discomfort) / Number of months a subject was a responder: Two months (Abnormal bowel habits) / Number of months a subject was a responder: Two months (IBS symptoms) / Number of months a subject was a responder: Zero months (Abdominal pain/discomfort) / Number of months a subject was a responder: Zero months (Abnormal bowel habits) / Number of months a subject was a responder: Zero months (IBS symptoms): monthly LOCF
Procedure: Study S241.3.009 was a Phase III, a double-blind, placebo-controlled, randomized, multinational study to investigate the safety and efficacy of 2 mg TID of cilansetron over 26 weeks in diarrhea-predominant IBS subjects. The study was conducted in 146 multinational study centers. A total of 1307 subjects consented to participate, and 806 subjects were randomized. A total of 792 subjects were analyzed for efficacy and 799 subjects were analyzed for safety. Diagnosis and main criteria for inclusion were IBS subjects satisfying the Rome I criteria (1992); the diarrhea-predominant sub-population of the Rome II criteria; and a minimum abdominal pain/discomfort, stool frequency and consistency determined during the run-in period. Subjects were treated with cilansetron 2 mg tablets given orally TID or matching placebo tablets given orally TID for 26 weeks.
The primary efficacy parameter was the overall response rate for IBS symptoms, based on the weekly question concerning adequate relief of IBS symptoms (abdominal pain/discomfort, abnormal bowel habits) over the 26 weeks period. A responder was a subject who responded “yes” at least 50% of the time during his/her treatment period, with minimum treatment duration of four weeks. The two main secondary efficacy parameters were overall responder rate based on the weekly question on adequate relief of abdominal pain/discomfort and abnormal bowel habits during the 26-week treatment period. The onset of action of cilansetron was also examined using daily diary data (stool frequency, and ratings of urgency and severity) during the initial 8 weeks of trial participation. An additional key secondary efficacy parameter was the number of months (one month equals four weeks) up to six months (24-weeks) that a subject was a responder for IBS symptoms, where a responder was defined as a subject who answered the weekly question with “yes” at least twice for that month. The responder rate for the weekly diary questions on adequate relief at each month and all months, the adequate relief rate, the number of subjects with adequate relief by week, daily diary questions, IBS-QOL scores, and the interruption of activities were also assessed. Safety was evaluated by physical examination, ECG, vital signs, laboratory evaluations, concomitant medications, and AEs.
Studies S24 1.3.OO6, S24 1.3.0 1 1, and S24 1.3.009 used the following efficacy measurements: • The subjects answered the following three questions with “yes” or “no” using a phone diary at the end of each week: • a) During the last week, did you experience adequate relief of your IBS symptoms, such as abdominal pain, abdominal discomfort, abnormal bowel habits? • b) During the last week, did you experience adequate relief of your abdominal pain and/or discomfort? • c) During the last week, did you experience adequate relief of your abnormal bowel habits? • The subjects rated the following symptoms using the phone diary at the end of each day: • abdominal pain/discomfort (five-point scale); • stool consistency (seven-point Bristol Stool Scale); • stool frequency (number of bowel movements each day); • urgency (five-point scale); • straining (yes or no); • feeling of incomplete defecation (yes or no); • bloating or feeling of abdominal distension (five-point scale). • In Studies S241 A006 and S241.3.009, subjects completed the IBS-QOL Survey at Baseline (Day 1) and at the end of treatment. In Study S24 1.3.0 1 1, subjects completed the IBS-QOL Survey at Baseline (Day 1), at the end of the three-month treatment period, and at the end of rerandomized treatment.
In all three pivotal efficacy studies, the primary and main secondary efficacy parameters were based on the weekly diary questions on adequate relief and included the following: • 1. Number of months (one month equals four weeks) that a subject was a responder for the weekly diary questions on adequate relief. […]

## Cc1nccn1C[C@H]1CCc2c(c3cccc4c3n2CCC4)C1=O [Cilansetron, (R)-(−)-4,5,6,8,9,10-hexahydro-10-[(2-methyl-1H-imidazol-1-yl)methyl]-11H-pyrido-[3,2,1-jk]-carbazol-11-one]
Each month of Months 4 to 6
  Responder rate, adequate relief of abnormal bowel habits: 204 (52) n (%)
Female subjects
  Overall responder rate, adequate relief of IBS symptoms: 132 (63) n (%)
  Overall responder rate, adequate relief of abdominal pain/discomfort: 133 (64) n (%)
  Overall responder rate, adequate relief of abnormal bowel habits: 141 (67) n (%)
Female subjects, Months 1 to 3
  Number of months a subject was a responder: One month (Abdominal pain/discomfort): 30 (14) n (%)
  Number of months a subject was a responder: One month (Abnormal bowel habits): 25 (12) n (%)
  Number of months a subject was a responder: One month (IBS symptoms): 28 (13) n (%)
  Number of months a subject was a responder: Three months (Abdominal pain/discomfort): 93 (44) n (%)
  Number of months a subject was a responder: Three months (Abnormal bowel habits): 91 (44) n (%)
  Number of months a subject was a responder: Three months (IBS symptoms): 82 (39) n (%)
  Number of months a subject was a responder: Two months (Abdominal pain/discomfort): 36 (17) n (%)
  Number of months a subject was a responder: Two months (Abnormal bowel habits): 49 (23) n (%)
  Number of months a subject was a responder: Two months (IBS symptoms): 47 (22) n (%)
  Number of months a subject was a responder: Zero months (Abdominal pain/discomfort): 50 (24) n (%)
  Number of months a subject was a responder: Zero months (Abnormal bowel habits): 44 (21) n (%)
  Number of months a subject was a responder: Zero months (IBS symptoms): 52 (25) n (%)
Male subjects
  Overall responder rate, adequate relief of IBS symptoms: 102 (55) n (%)
  Overall responder rate, adequate relief of abdominal pain/discomfort: 106 (57) n (%)
  Overall responder rate, adequate relief of abnormal bowel habits: 112 (60) n (%)
Male subjects, Months 1 to 3
  Number of months a subject was a responder: One month (Abdominal pain/discomfort): 31 (17) n (%)
  Number of months a subject was a responder: One month (Abnormal bowel habits): 24 (13) n (%)
  Number of months a subject was a responder: One month (IBS symptoms): 27 (15) n (%)
  Number of months a subject was a responder: Three months (Abdominal pain/discomfort): 66 (35) n (%)
  Number of months a subject was a responder: Three months (Abnormal bowel habits): 74 (40) n (%)
  Number of months a subject was a responder: Three months (IBS symptoms): 68 (37) n (%)
  Number of months a subject was a responder: Two months (Abdominal pain/discomfort): 34 (18) n (%)
  Number of months a subject was a responder: Two months (Abnormal bowel habits): 34 (18) n (%)
  Number of months a subject was a responder: Two months (IBS symptoms): 33 (18) n (%)
  Number of months a subject was a responder: Zero months (Abdominal pain/discomfort): 55 (30) n (%)
  Number of months a subject was a responder: Zero months (Abnormal bowel habits): 54 (29) n (%)
  Number of months a subject was a responder: Zero months (IBS symptoms): 58 (31) n (%)
Month 1
  Responder rate, adequate relief of IBS symptoms: 193 (49) n (%)
  Responder rate, adequate relief of abdominal pain/discomfort: 199 (50) n (%)
  Responder rate, adequate relief of abnormal bowel habits: 214 (54) n (%)
Month 2
  Responder rate, adequate relief of IBS symptoms: 233 (59) n (%)
  Responder rate, adequate relief of abdominal pain/discomfort: 237 (60) n (%)
  Responder rate, adequate relief of abnormal bowel habits: 245 (62) n (%)
Month 3
  Responder rate, adequate relief of IBS symptoms: 239 (61) n (%)
  Responder rate, adequate relief of abdominal pain/discomfort: 242 (61) n (%)
  Responder rate, adequate relief of abnormal bowel habits: 251 (64) n (%)
Month 4
  Responder rate, adequate relief of IBS symptoms: 237 (60) n (%)
  Responder rate, adequate relief of abdominal pain/discomfort: 241 (61) n (%)
  Responder rate, adequate relief of abnormal bowel habits: 245 (62) n (%)
Month 5
  Responder rate, adequate relief of IBS symptoms: 237 (60) n (%)
  Responder rate, adequate relief of abdominal pain/discomfort: 242 (61) n (%)
  Responder rate, adequate relief of abnormal bowel habits: 247 (63) n (%)
Month 6
  Responder rate, adequate relief of IBS symptoms: 233 (59) n (%)
  Responder rate, adequate relief of abdominal pain/discomfort: 237 (60) n (%)
  Responder rate, adequate relief of abnormal bowel habits: 243 (62) n (%)
Months 1 to 3
  Median adequate relief rate, IBS symptoms: 0.58
  Median adequate relief rate, abdominal pain/discomfort: 0.58
  Median adequate relief rate, abnormal bowel habits: 0.67
  Overall responder rate, abdominal pain/discomfort: 56%
  Overall responder rate, abnormal bowel habits: 62%
Months 1 to 3, observed case
  Overall responder rate, IBS symptoms: 55%
Months 1 to 6
  Median adequate relief rate, IBS symptoms: 0.64
  Median adequate relief rate, abdominal pain/discomfort: 0.63
  Median adequate relief rate, abnormal bowel habits: 0.70
Romania
  Overall responder rate difference vs placebo across diary questions: −29% to −8
South Africa
  Overall responder rate difference vs placebo, each diary question: −23%
